# Measurements taken from patent publication US20120184542A1, “PYRIDO PYRIMIDINES” (priority 2011, published 2012).
# Counter-ions that a name gives are not always drawn.
# Columns and labels:
# [1] = molecular target: T1, Human DYRK1B (Homo sapiens, UniProt Q9Y463); assay: DYRK1B Kinase TR-FRET (IMAP-Tb) Assay; assay type: biochemical; settings: TR-FRET (IMAP-Tb); ATP 70 μM; 37° C. 60 minutes; read-out: Enzyme IC50 (μM) DYRK1B
# T1 construct: purchased Invitrogen PR8350B (former PV4649)
# [2] = molecular target: T2, Human DYRK1A (Homo sapiens, UniProt Q13627); assay: DYRK1A Kinase TR-FRET (IMAP-Tb) Assay; assay type: biochemical; settings: TR-FRET (IMAP-Tb); ATP 70 μM; 37° C. 60 minutes; read-out: Enzyme IC50 (μM) DYRK1A
# T2 construct: purchased Invitrogen PV3997
# Outline: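 Recombinant human DYRK1A phosphorylated fluorescent substrate peptide (1.0 μM) with ATP in 10 mM HEPES pH 7.0, 50 mM NaCl, 5 mM MgCl2, 1 mM DTT, 1 mM NaVO4, 0.02% BSA for 60 min at 37 °C. Phosphopeptide detected by IMAP terbium TR-FRET; IC50 reported.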
# [3] = test system: SW620 human colon cancer cells; assay: SW620 Cell Viability Assay; assay type: cell-based; settings: Homo sapiens, SW-620, 96 h, CellTiter-Glo; 4 days incubation; read-out: Cellular EC50 (μM) SW620
# Outline: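 SW620 human colon cancer cells, some attached 24 h then serum-starved 48 h before dosing; compounds prepared in serum-supplemented medium. Cells incubated with compound 4 days at 37 °C, 5% CO2, and viability measured by CellTiter-Glo luminescence.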
# T1 sequence (Q9Y463 whole entry): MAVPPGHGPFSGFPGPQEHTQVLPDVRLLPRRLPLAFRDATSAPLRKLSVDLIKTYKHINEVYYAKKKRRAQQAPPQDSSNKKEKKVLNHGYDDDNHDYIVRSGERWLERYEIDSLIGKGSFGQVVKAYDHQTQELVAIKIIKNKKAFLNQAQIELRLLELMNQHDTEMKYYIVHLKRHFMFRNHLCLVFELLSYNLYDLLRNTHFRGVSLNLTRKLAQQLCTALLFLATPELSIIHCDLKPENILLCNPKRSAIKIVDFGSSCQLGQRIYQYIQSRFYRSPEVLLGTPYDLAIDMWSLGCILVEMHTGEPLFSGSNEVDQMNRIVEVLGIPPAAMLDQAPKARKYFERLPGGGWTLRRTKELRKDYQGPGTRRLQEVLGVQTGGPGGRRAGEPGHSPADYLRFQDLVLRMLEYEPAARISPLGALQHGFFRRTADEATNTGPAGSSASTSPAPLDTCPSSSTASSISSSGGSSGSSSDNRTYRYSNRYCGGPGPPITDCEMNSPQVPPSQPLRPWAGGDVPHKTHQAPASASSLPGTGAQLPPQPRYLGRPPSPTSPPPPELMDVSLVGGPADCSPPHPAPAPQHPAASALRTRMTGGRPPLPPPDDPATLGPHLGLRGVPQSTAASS
Structure (SMILES),IC50 [1],IC50 [2],EC50 [3]
"COc1ncc2cc(C(=O)Nc3cc(C(=O)NCCC(N)=O)ccc3Cl)c(=O)[nH]c2n1 [Example 167, N-(5-(3-Amino-3-oxopropylcarbamoyl)-2-chlorophenyl)-2-methoxy-7-oxo-7,8-dihydropyrido[2,3-d]pyrimidine-6-carboxamide]",0.769 µM,0.338 µM,> 10 µM
"COc1nc(C)c2cc(C(=O)Nc3cc(C(=O)NC(CN)c4ccccc4)ccc3Cl)c(=O)[nH]c2n1 (stereo not drawn) [Example 170, N-(5-(2-Amino-1-phenylethylcarbamoyl)-2-chlorophenyl)-2-methoxy-4-methyl-7-oxo-7,8-dihydropyrido[2,3-d]pyrimidine-6-carboxamide 2,2,2-trifluoroacetate]",0.117 µM,0.0164 µM,3.21 µM
"CN1CCN(c2ncc3cc(C(=O)Nc4cc(C(=O)NCc5ccccc5)ccc4Cl)c(=O)[nH]c3n2)CC1 [Example 172, 2-(4-Methyl-piperazin-1-yl)-7-oxo-7,8-dihydro-pyrido[2,3-d]pyrimidine-6-carboxylic acid (5-benzylcarbamoyl-2-chloro-phenyl)-amide]",0.208 µM,0.109 µM,0.49 µM
"C[C@@H](NC(=O)c1ccc(Cl)c(NC(=O)c2cc3cnc(N4CCN(C)CC4)nc3[nH]c2=O)c1)c1ccccc1 [Example 174, 2-(4-Methyl-piperazin-1-yl)-7-oxo-7,8-dihydro-pyrido[2,3-d]pyrimidine-6-carboxylic acid [2-chloro-5-((R)-1-phenyl-ethylcarbamoyl)-phenyl]-amide]",0.207 µM,0.0873 µM,0.512 µM
"O=C(NCc1cccc(Cl)c1)c1ccc(Cl)c(NC(=O)c2cc3cnc(N4C[C@H]5CC[C@@H](C4)O5)nc3[nH]c2=O)c1 [Example 179, 2-(1R,5S)-8-Oxa-3-aza-bicyclo [3.2.1]oct-3-yl-7-oxo-7,8-dihydro-pyrido[2,3-d]pyrimidine-6-carboxylic acid [2-chloro-5-(3-chloro-benzylcarbamoyl)-phenyl]amide]",0.131 µM,0.0369 µM,0.367 µM
"O=C(NC(CO)c1ccccc1)c1ccc(Cl)c(NC(=O)c2cc3cnc(N4C[C@H]5CC[C@@H](C4)O5)nc3[nH]c2=O)c1 (stereo partly drawn) [Example 181, 2-(1R,5S)-8-Oxa-3-aza-bicyclo [3.2.1]oct-3-yl-7-oxo-7,8-dihydro-pyrido[2,3-d]pyrimidine-6-carboxylic acid [2-chloro-5-(2-hydroxy-1-phenyl-ethylcarbamoyl)-phenyl]amide]",0.148 µM,0.063 µM,1.88 µM
"O=C(NC(CCO)c1ccccc1)c1ccc(Cl)c(NC(=O)c2cc3cnc(N4C[C@H]5CC[C@@H](C4)O5)nc3[nH]c2=O)c1 (stereo partly drawn) [Example 182, 2-(1R,5S)-8-Oxa-3-aza-bicyclo [3.2.1]oct-3-yl-7-oxo-7,8-dihydro-pyrido[2,3-d]pyrimidine-6-carboxylic acid [2-chloro-5-(3-hydroxy-1-phenyl-propylcarbamoyl)-phenyl]amide]",0.081 µM,0.083 µM,1.12 µM
"NCCC(NC(=O)c1ccc(Cl)c(NC(=O)c2cc3cnc(N4C[C@H]5CC[C@@H](C4)O5)nc3[nH]c2=O)c1)c1ccccc1 (stereo partly drawn) [Example 183, 2-(1R,5S)-8-Oxa-3-aza-bicyclo [3.2.1]oct-3-yl-7-oxo-7,8-dihydro-pyrido[2,3-d]pyrimidine-6-carboxylic acid [5-(3-amino-1-phenyl-propylcarbamoyl)-2-chloro-phenyl]amide; hydrochloride]",0.0077 µM,0.0046 µM,0.027 µM
"COc1ncc2cc(C(=O)Nc3cc(C(=O)NCC[C@@H](N)c4ccccc4)ccc3Cl)c(=O)[nH]c2n1 [Example 184, (R)—N-(5-(3-Amino-3-phenylpropylcarbamoyl)-2-chlorophenyl)-2-methoxy-7-oxo-7,8-dihydropyrido[2,3-d]pyrimidine-6-carboxamide]",0.691 µM,0.331 µM,5.09 µM
